Results taken from patent US20080161393A1, “Use of prodrugs of GABA analogs for treating disease” (priority 2006, published 2008).

Experiments:
[1] = Randomized, crossover, fed/fasted single-dose pharmacokinetic study of oral sustained release tablets of compound (3) in healthy adult subjects; type: in vivo, human
Procedure: A randomized, crossover, fed/fasted single-dose study of the safety, tolerability, and pharmacokinetics of oral administration of 1-{[(α-isobutanoyloxyethoxy)carbonyl]aminomethyl}-1-cyclohexane acetic acid (3) in healthy adult subjects was conducted. The oral sustained release dosage form of Example 6 (uncoated) was used in this study. The study was designed to evaluate the performance of this formulation in humans in comparison with the commercial gabapentin capsule formulation (Neurontin®, Pfizer). Twelve healthy adult volunteers (7 males and 5 females) participated in the study. Mean body weight was 75.6 kg. All subjects received two different treatments in a random order with a one-week washout between treatments. The two treatments were: A) a single oral dose of Example 6 tablets (2×600 mg) after an overnight fast; and B) a single oral dose of Example 6 tablets (2×600 mg) after a high fat breakfast.
Blood and plasma samples were collected from all subjects prior to dosing, and at 0.5, 1, 1.5, 2, 3, 4, 6, 8, 12, 18, 24, and 36 hours after dosing. Urine samples were collected from all subjects prior to dosing, and complete urine output was obtained at the 0-4 h, 4-8 h, 8-12 h, 12-18 h, 18-24 h, and 24-36 h intervals after dosing. Blood samples were quenched immediately with methanol and stored frozen at […]. Sample aliquots were prepared for analysis of gabapentin and compound (3) using sensitive and specific LC/MS/MS methods.

[2] = cited from earlier work

Row | Structure (SMILES) | AUC of compound (3) in blood as % of corresponding AUC of gabapentin in blood ([1]; fasted subjects) [%] | Maximum intact compound (3) concentration as % of corresponding peak gabapentin concentration ([1]; fasted subjects) | AUC of compound (3) in blood as % of corresponding AUC of gabapentin in blood ([1]; fed subjects) | Maximum intact compound (3) concentration as % of corresponding peak gabapentin concentration ([1]; fed subjects) | Typical Tmax of immediate release gabapentin [2] [h]
1 | CC(OC(=O)NCC1(CC(=O)O)CCCCC1)OC(=O)C(C)C (stereo not drawn) [compound (3), 1-{[(α-Isobutanoyloxyethoxy)carbonyl]aminomethyl}-1-Cyclohexane Acetic Acid] | 0.3 | approximately 1.0% | less than 0.1% | approximately 0.3% | 
2 | NCC1(CC(=O)O)CCCCC1 [gabapentin] |  |  |  |  | 2 to 4
